Results on 2 compounds are retold here after patent US20150313891A1, “NEURONAL NICOTINIC AGONISTS AND METHODS OF USE” (AbbVie Inc., priority 2014, published 2015).

In one data set the test system is AD. Kind of data set: Phase 2a study, symptomatic treatment of AD. The class given is in vivo, human.
The test system of data set [1] is MPTP-lesioned monkeys. The experiment in a line: Parkinsonian ratings in MPTP-lesioned monkeys. The following applies: for Parkinsonian scores Before L-dopa: 45 min before L-dopa; for Parkinsonian scores Before L-dopa / Parkinsonian scores After L-dopa: mean ± SEM, 5 monkeys; for Parkinsonian scores After L-dopa: 90 min after L-dopa (10 mg/kg)/carbidopa (2.5 mg/kg). The format is in vivo, squirrel monkeys (Saimiri sciureus). An excerpt:
After quarantine, all monkeys were trained to perform various motor and other tasks for future assessment of parkinsonism and other behaviors (Quik et al. 2013b, Zhang et al. 2013, Quik et al. 2007, Quik et al. 2013a). […] Sigma-Aldrich, St. Louis, Mo.) dissolved in saline (n=21), as described (Quik et al. 2013b, Zhang et al. 2013, Quik et al. 2007, Quik et al. 2013a). […] These include spatial hypokinesia (use of available cage space), body bradykinesia (slowness in body movement), manual dexterity in both left and right hands, balance (ability to hold on to the cage bars), freezing, and action tremor as described (Quik et al. 2013b, Zhang et al. 2013, Quik et al. 2007, Quik et al. 2013a). MPTP injections were repeated (1.5-1.9 mg/kg sc per time) if the monkeys were not parkinsonian and to maintain parkinsonism. Parkinsonism was rated once weekly on Monday. […] These latter two sets of monkeys had previously been given ABT-894 and ABT-107 but using somewhat different treatment regimens. The present study was done after a 7 wk washout period, at which point LIDs were similar in all groups. […] It was provided in the drinking water starting at 50 μg/ml for 2 days, increased to 150 μg/ml for another two days and then maintained at 300 μg/ml. ABT-126 was tested at 0.03, 0.10, 0.30 and 1.0 mg/kg, with each dose of ABT-126 tested for 1 or 2 wk. Statistical analyses were done using GraphPad Prism. One- or two-way ANOVA was used for multiple group comparisons followed by a Newman-Keuls or Bonferroni post hoc test. Differences in rating scores between groups were analyzed using nonparametric tests (Mann-Whitney test). Data for rating scores was provided as the median (nonparametric) or mean±SEM (parametric). A value of P ≦0.05 is considered statistically significant. Values expressed are the mean±SEM of the indicated number of monkeys.

The subject of data set [2] is subjects with schizophrenia. The experiment in a line: Tolerability in subjects with schizophrenia. The format is in vivo, human. The following applies: doses up to 25 mg QD, including 10 mg QD and 25 mg QD.
Data set [3] has as its system MPTP-lesioned monkeys. Kind of data set: Cognitive testing, object retrieval task. The following applies: for Attempts / Latency: 90 min after first L-dopa gavage, mean ± SEM, 5 monkeys. The format is in vivo, squirrel monkeys (Saimiri sciureus). An excerpt: To evaluate cognitive performance, an object retrieval task was used that measures a component of prefrontal cortex dependent cognitive control involving inhibition of an initial learned response after subsequent spatial reversals (Lyons et al. 2000, Lyons et al. 2004, Zhang et al. 2013). The apparatus used consists of a clear Plexiglas box (8×8×8 cm) with one open side, containing a small piece of marshmallow (Lyons et al. 2000, Lyons et al. 2004). The box is locked into place on a metallic platform hooked onto the front of the monkey cage. Control and MPTP-lesioned monkeys were scored for the average time and number of trials required to retrieve the marshmallow in 30 sec. The effect of ABT-126 administration was tested once weekly on Friday. […] These latter two sets of monkeys had previously been given ABT-894 and ABT-107 but using somewhat different treatment regimens. The present study was done after a 7 wk washout period, at which point LIDs were similar in all groups. ABT-126 was administered orally in a small cracker 30 min before L-dopa/carbidopa twice daily. […] It was provided in the drinking water starting at 50 μg/ml for 2 days, increased to 150 μg/ml for another two days and then maintained at 300 μg/ml. ABT-126 was tested at 0.03, 0.10, 0.30 and 1.0 mg/kg, with each dose of ABT-126 tested for 1 or 2 wk. Statistical analyses were done using GraphPad Prism. One- or two-way ANOVA was used for multiple group comparisons followed by a Newman-Keuls or Bonferroni post hoc test. Differences in rating scores between groups were analyzed using nonparametric tests (Mann-Whitney test). Data for rating scores was provided as the median (nonparametric) or mean±SEM (parametric). A value of P ≦0.05 is considered statistically significant. Values expressed are the mean±SEM of the indicated number of monkeys.

Data set [4] deals with MPTP-lesioned monkeys. The experiment in a line: L-dopa-induced dyskinesias (LIDs) ratings in MPTP-lesioned monkeys. The format is in vivo, squirrel monkeys (Saimiri sciureus). An excerpt:
The objective of the current study was to test the effect of the α7 nAChR agonist ABT-126 for its ability to reduce L-dopa-induced dyskinesias (LIDs) in MPTP-lesioned monkeys. […] All monkeys were orally gavaged with L-dopa/carbidopa twice daily, which led to the development of stable abnormal involuntary movements or dyskinesias. […] These latter two sets of monkeys had previously been given ABT-894 and ABT-107 but using somewhat different treatment regimens. The present study was done after a 7 wk washout period, when LIDs were similar in all groups. ABT-126 was administered orally in a small cracker 30 min before L-dopa (10 mg/kg) and carbidopa (2.5 mg/kg). […] ABT-126 was tested at 0.03, 0.10, 0.30 and 1.0 mg/kg, with each dose of ABT-126 tested for 1 or 2 wk. […] ABT-126 at 0.10 mg/kg reduced LIDs by ˜40%, while the 0.30 and 1.0 mg/kg ABT-126 doses decreased LIDs up to 60%. We also tested the effect of ABT-126 (1.0 mg/kg) for its ability to reduce LIDs at a higher dose of L-dopa (15 mg/kg)/carbidopa (3.75 mg/kg). The higher dose of L-dopa led to greater LID scores in vehicle treated monkeys. […] The effect of ABT-126 was most pronounced during the latter weeks, possibly because of a greater decline with continued drug treatment. A washout is in progress to determine if LIDs return to vehicle-treated levels after ABT-126 discontinuation. There was no effect of the drug on parkinsonism or cognitive ability. Adult male and female squirrel monkeys (Saimiri sciureus) (n=21) weighing 0.6-1.2 kg were obtained from World Wide Primates (Miami, Fla.). The monkeys were quarantined for one month, as mandated by California state regulations. All studies were performed according to the NIH Guide for the Care and Use of Laboratory Animals, and were approved by the Institutional Animal Care and Use Committee at SRI. Animals were housed separately in a room maintained at 27±3° C., with a 12:12-h light/dark cycle. Monkey chow, fruits, and vegetables were provided over the course of the day, with water freely available. After quarantine, all monkeys were trained to perform various motor and other tasks for future assessment of parkinsonism and other behaviors (Quik et al. 2013b, Zhang et al. 2013, Quik et al. 2007, Quik et al. 2013a). They were then injected with saline (n=5) or 2.0 mg/kg 1-methyl-4-phenyl-1,2,3,6-tetrahydropyridine sc (MPTP; Sigma-Aldrich, St. Louis, Mo.) dissolved in saline (n=21), as described (Quik et al. 2013b, Zhang et al. 2013, Quik et al. 2007, Quik et al. 2013a). […] These include spatial hypokinesia (use of available cage space), body bradykinesia (slowness in body movement), manual dexterity in both left and right hands, balance (ability to hold on to the cage bars), freezing, and action tremor as described (Quik et al. 2013b, Zhang et al. 2013, Quik et al. 2007, Quik et al. 2013a). MPTP injections were repeated (1.5-1.9 mg/kg sc per time) if the monkeys were not parkinsonian and to maintain parkinsonism. Parkinsonism was rated once weekly on Monday. The monkeys were next orally gavaged with L-dopa (10 mg/kg) plus carbidopa (2.5 mg/kg), twice daily 4.5 h apart 5 d per wk, as described (Quik et al. 2013b, Zhang et al. 2013, Quik et al. 2007, Quik et al. 2013a). While treated with L-dopa, monkeys were given only fruits and vegetables in the morning to enhance L-dopa absorption. Monkey chow, as well as more fruits and vegetables, were given several hours after the second dose of L-dopa. The monkeys were taped from 8:00 to 8:30 AM, before the first dose of L-dopa to evaluate baseline movements and then from 8:30 to 12:30 PM, following the morning L-dopa dose, to evaluate dyskinesias. LIDs were rated from the video recordings for a 1 min period every 30 min. […]

Setting [5] is: 0.03 mg/kg ABT-126 orally, set 1.
Setting [6] is: 0.03 mg/kg ABT-126 orally, set 2.
[7] abbreviates: ABT-126 orally, MPTP-lesioned L-dopa-treated monkeys.
The mark [8] stands for this setting: 0.3 mg/kg ABT-126 orally, set 1.
Where [9] appears, read: 0.3 mg/kg ABT-126 orally, set 2.
Where [10] appears, read: ABT-126 1.0 mg/kg orally, higher L-dopa (15 mg/kg)/carbidopa (3.75 mg/kg), wk 6.
[11] abbreviates: 300 μg/ml nicotine in the drinking water.

Structures are written as SMILES.

On to `c1ccc(-c2nnc(O[C@@H]3C4CC5C[C@H]3C[N@](C5)C4)s2)cc1` [ABT-126, (4s)-4-(5-phenyl-1,3,4-thiadiazol-2-yloxy)-1-azatricyclo[3.3.1.1^3,7]decane], for which, in the data set with AD, the “efficacy in the symptomatic treatment of AD” value is listed as “signal for efficacy”. Besides, in the data set with MPTP-lesioned monkeys [1] (setting [5]), the “Parkinsonian scores Before L-dopa” value amounted to 4.2 ± 0.4 and the “Parkinsonian scores After L-dopa” value is on record as 2.6 ± 0.4. Moreover, in the data set on MPTP-lesioned monkeys [1] (setting [6]), the “Parkinsonian scores Before L-dopa” value is listed as 3.4 ± 0.7 and the “Parkinsonian scores After L-dopa” value is on record as 2.2 ± 0.2. Also, the effect on parkinsonism result in the data set with MPTP-lesioned monkeys [1] (setting [7]) was “no effect”. For the same compound, the tolerability result in data set [2] is “well tolerated”. In the data set on MPTP-lesioned monkeys [3] (setting [8]), the Attempts is listed as 22.8 ± 3.2 and the “Latency” value was found to be 21.2 ± 2.8 s. Moreover, in the data set on MPTP-lesioned monkeys [3] (setting [9]), the Attempts was 18.0 ± 2.5 and the “Latency” value stood at 18.3 ± 3.3 s. Further, in the data set with MPTP-lesioned monkeys [3] (setting [7]), the “effect on cognitive ability” value was “no effect”. Further, in the data set on MPTP-lesioned monkeys [4] (ABT-126 0.03 mg/kg orally 30 min before L-dopa (10 mg/kg)/carbidopa (2.5 mg/kg)), the “effect on LIDs” value is recorded as “no significant effect”. In addition, the “reduction of LIDs” value in the data set with MPTP-lesioned monkeys [4] (ABT-126 0.10 mg/kg orally 30 min before L-dopa (10 mg/kg)/carbidopa (2.5 mg/kg)) is roughly 40%. For the same compound, in the data set with MPTP-lesioned monkeys [4] (ABT-126 0.3 mg/kg), the “hourly time course of LIDs, FIG. 2” value is “maximal decline”. Besides, the “decrease of LIDs” value with MPTP-lesioned monkeys [4] (ABT-126 0.30 mg/kg orally 30 min before L-dopa (10 mg/kg)/carbidopa (2.5 mg/kg)) is recorded as “up to 60%”. Besides, the “decrease of LIDs” value with MPTP-lesioned monkeys [4] (ABT-126 1.0 mg/kg orally 30 min before L-dopa (10 mg/kg)/carbidopa (2.5 mg/kg)) is listed as “up to 60%”. Besides, in the data set on MPTP-lesioned monkeys [4] (setting [10]), the “reduction of LIDs after the afternoon dose of L-dopa” value is 60% and the “reduction of LIDs after the morning dose of L-dopa” value is 70%. For the same compound, in the data set with MPTP-lesioned monkeys [4] (increasing doses of ABT-126 (0.03 to 1.0 mg/kg), each for a wk, L-dopa 10 mg/kg plus carbidopa 2.5 mg/kg), the “decrease of LIDs, total dyskinesia scores (% vehicle), FIG. 1” value is no more than 70%.
In the case of `CN1CCCC1c1cccnc1` (stereo not drawn) [Nicotine, nicotine, reference compound], in the data set on MPTP-lesioned monkeys [1] (setting [11]), the “Parkinsonian scores Before L-dopa” value was 3.6 ± 0.4 and the “Parkinsonian scores After L-dopa” value was 2.4 ± 0.4. Also, in the data set with MPTP-lesioned monkeys [3] (setting [11]), the Attempts is on record as 23.8 ± 2.8 and the “Latency” value is listed as 19.2 ± 2.2 s.
